For one assay, the target named is SARS-CoV-2 3CL-protease (Severe acute respiratory syndrome coronavirus 2, UniProt P0DTD1). Nature of the assay: SARS-CoV-2 3C-like (3CL) protease fluorescence assay (FRET). It counts as biochemical. The settings on record: recombinant SARS-CoV-2 3CL-protease 10 nM, 30 min preincubation, run in duplicate; read-out: FRET IC50.
Assay [1] concerns 229E human corona virus (hCoV). In words: 229E live virus assay (CPE, ATPlite readout in MRC-5 cells). It counts as cell-based, hCoV-229E. As to conditions: Human coronavirus 229E, MRC5, 144 h, MOI 0.05, 6 days at 34° C., run in duplicate. (ATP-based viability assays read luminescence as a measure of living cells.)

Among the data in patent publication US12643905B2, “Spiropyrrolidine derived antiviral agents” (priority 2021, dated 2026) are IC50 and EC50 values, retold here.

pEC50, pIC50: −log10 of the molar value. Bounds are passed on as bounds.

A word on the pIC50: it is the IC50 on a negative log10 scale, so that one unit is a factor of ten. What is called pEC50 is the negative decadic logarithm of the EC50, by convention in mol/L. Consider `CC(C)(C)C[C@H](NC(=O)C(=O)Nc1ccc(F)cc1F)C(=O)N1C[C@]2(C[C@H]1C#N)C(=O)Nc1ccccc12` [Example 94], for which the pIC50 on SARS-CoV-2 3CL-protease was over 7.00. Besides, the pEC50 in assay [1] is over 7.00.

Consider `CC(C)(C)C[C@H](NC(=O)C(=O)NC1CC(F)(F)C1)C(=O)N1C[C@]2(C[C@H]1C#N)C(=O)Nc1ccccc12` [Example 120], for which the negative-log IC50 (pIC50) at SARS-CoV-2 3CL-protease was over 7.00. For the same compound, in assay [1], the pEC50 is over 7.00.

Regarding `CC(C)(C)C[C@H](NC(=O)C(=O)Nc1c(Cl)cccc1Cl)C(=O)N1C[C@]2(C[C@H]1C#N)C(=O)Nc1ccccc12` [Example 117], the pIC50 at SARS-CoV-2 3CL-protease was over 7.00. In assay [1], this compound had a pEC50 of over 7.00.

`CC(C)(C)C[C@H](NC(=O)C(=O)NC1CCCCC1)C(=O)N1C[C@]2(C[C@H]1C#N)C(=O)Nc1ccccc12` [Example 97]: on SARS-CoV-2 3CL-protease, the pIC50 is over 7.00. Besides, the pEC50 in assay [1] was over 7.00.

For `C[C@H](NC(=O)C(=O)N[C@@H](CC(C)(C)C)C(=O)N1C[C@]2(C[C@H]1C#N)C(=O)Nc1ccccc12)c1ccccc1` [Example 161], the pIC50 on SARS-CoV-2 3CL-protease is over 7.00. This compound also showed a pEC50 in assay [1] of over 7.00.

As for `[2H]C([2H])([2H])N(C(=O)C(=O)Nc1c(C(F)(F)F)cccc1C(F)(F)F)[C@@H](CC1CC1)C(=O)N1C[C@]2(C[C@H]1C#N)C(=O)Nc1ccccc12` [Example 193], the pIC50 at SARS-CoV-2 3CL-protease was over 7.00. In assay [1], this compound gave a pEC50 of over 7.00.

As to `CCCC[C@H](NC(=O)C(=O)NC1(c2ccc(F)cc2F)CC1)C(=O)N1C[C@]2(C[C@H]1C#N)C(=O)Nc1ccccc12` [Example 76], the negative-log IC50 (pIC50) at SARS-CoV-2 3CL-protease is over 7.00. The same compound showed a pEC50 in assay [1] of over 7.00.

With `[2H]C([2H])([2H])N(C(=O)C(=O)NCC1(C(F)(F)F)CC1)[C@@H](CC1CC1)C(=O)N1C[C@]2(C[C@H]1C#N)C(=O)Nc1ccccc12` [Example 192], the pIC50 on SARS-CoV-2 3CL-protease was over 7.00. The compound further showed a pEC50 in assay [1] of over 7.00.

In the case of `CC(C)(C)C[C@H](NC(=O)C(=O)Nc1c(C(F)(F)F)cccc1C(F)(F)F)C(=O)N1C[C@]2(C[C@H]1C#N)C(=O)Nc1ccccc12` [Example 138], the pIC50 at SARS-CoV-2 3CL-protease was over 7.00. In assay [1], this compound had a pEC50 of over 7.00.

In the case of `CC(C)C[C@H]1C(=O)N2C[C@]3(C[C@H]2C#N)C(=O)Nc2ccc(cc23)CCCCCNC(=O)C(=O)N1C` [Example 213], the pIC50 at SARS-CoV-2 3CL-protease is 6.00 to 7.00. The pEC50 in assay [1] was 6.00 to 7.00.

`CC(C)(C)C[C@H](NC(=O)C(=O)Nc1ccc2ccccc2c1)C(=O)N1C[C@]2(C[C@H]1C#N)C(=O)Nc1ccccc12` [Example 96]: the pIC50 at SARS-CoV-2 3CL-protease was over 7.00. The pEC50 in assay [1] was over 7.00.

Regarding `CC(C)(C)C[C@H](NC(=O)C(=O)C1CCCCC1)C(=O)N1C[C@]2(C[C@H]1C#N)C(=O)Nc1ccccc12` [Example 183], the pIC50 on SARS-CoV-2 3CL-protease was over 7.00. In assay [1], this compound showed a pEC50 of 6.00 to 7.00.

Consider `CCC(C)NC(=O)C(=O)N[C@@H](CC(C)(C)C)C(=O)N1C[C@]2(C[C@H]1C#N)C(=O)Nc1ccccc12` (stereo partly drawn) [Example 88], for which the pIC50 on SARS-CoV-2 3CL-protease is over 7.00. In addition, in assay [1], the pEC50 is over 7.00.

Regarding `CC(C)(C)C[C@H](NC(=O)C(=O)NC1(c2ccccc2)CCC1)C(=O)N1C[C@]2(C[C@H]1C#N)C(=O)Nc1ccccc12` [Example 119], the pIC50 at SARS-CoV-2 3CL-protease is over 7.00. Further, the pEC50 in assay [1] was over 7.00.

For `CC(C)C[C@H](NC(=O)C(=O)Nc1ccc(F)cc1)C(=O)N1C[C@]2(C[C@H]1C#N)C(=O)Nc1ccccc12` [Example 115], on SARS-CoV-2 3CL-protease, the pIC50 was over 7.00. The compound also had a pEC50 in assay [1] of over 7.00.

For `CC(C)(C)C[C@H](NC(=O)C(=O)Nc1c(F)cc(F)cc1F)C(=O)N1C[C@]2(C[C@H]1C#N)C(=O)Nc1ccccc12` [Example 92], at SARS-CoV-2 3CL-protease, the pIC50 is over 7.00. In addition, the pEC50 in assay [1] was over 7.00.

Take `CC(C)(C)C[C@H](NC(=O)C(=O)NC1CCCC1)C(=O)N1C[C@]2(C[C@H]1C#N)C(=O)Nc1ccccc12` [Example 98]: at SARS-CoV-2 3CL-protease, the pIC50 is over 7.00. In assay [1], the pEC50 is over 7.00.

As for `Cc1cccc(C)c1NC(=O)C(=O)N[C@@H](CC(C)(C)C)C(=O)N1C[C@]2(C[C@H]1C#N)C(=O)Nc1ccccc12` [Example 84], the pIC50 on SARS-CoV-2 3CL-protease was over 7.00. For the same compound, in assay [1], the pEC50 is over 7.00.

Regarding `CC(C)(C)C[C@H](NC(=O)C(=O)c1ccccc1)C(=O)N1C[C@]2(C[C@H]1C#N)C(=O)Nc1ccccc12` [Example 179], the pIC50 at SARS-CoV-2 3CL-protease was 6.00 to 7.00. In addition, the pEC50 in assay [1] is 6.00 to 7.00.

Take `CCCC[C@H](NC(=O)C(=O)Nc1ccc(F)cc1C(F)(F)F)C(=O)N1C[C@]2(C[C@H]1C#N)C(=O)Nc1ccccc12` [Example 75]: on SARS-CoV-2 3CL-protease, the pIC50 was over 7.00. The same compound showed a negative logarithm of the EC50 (pEC50) in assay [1] of over 7.00.

Consider `CC(C)(C)C[C@H](NC(=O)C(=O)c1ccccc1F)C(=O)N1C[C@]2(C[C@H]1C#N)C(=O)Nc1ccccc12` [Example 182], for which the pIC50 at SARS-CoV-2 3CL-protease is 6.00 to 7.00. In assay [1], this compound gave a pEC50 of 6.00 to 7.00.

As for `CC(C)(C)C[C@H](NC(=O)C(=O)C(C)(C)C)C(=O)N1C[C@]2(C[C@H]1C#N)C(=O)Nc1ccccc12` [Example 180], the pIC50 on SARS-CoV-2 3CL-protease is under 6.00. The same compound had a pEC50 in assay [1] of 6.00 to 7.00.

Take `CC(C)[C@H](NC(=O)C(=O)N[C@@H](CC(C)(C)C)C(=O)N1C[C@]2(C[C@H]1C#N)C(=O)Nc1ccccc12)c1ccccc1` [Example 116]: at SARS-CoV-2 3CL-protease, the pIC50 was over 7.00. The pEC50 in assay [1] is over 7.00.

In the case of `N#C[C@@H]1C[C@@]2(CN1C(=O)[C@H](CC1CC1)NC(=O)C(=O)Nc1ccc(F)cc1C(F)(F)F)C(=O)Nc1ccccc12` [Example 77], at SARS-CoV-2 3CL-protease, the pIC50 was over 7.00. Besides, in assay [1], the pEC50 is over 7.00.

`CC(C)C[C@H]1C(=O)N2C[C@]3(C[C@H]2C#N)C(=O)Nc2ccc(cc23)/C=C\CCNC(=O)C(=O)N1C` [Example 214]: the pIC50 on SARS-CoV-2 3CL-protease was 6.00 to 7.00. In addition, the pEC50 in assay [1] was 6.00 to 7.00.

Consider `[2H]C([2H])([2H])N(C(=O)C(=O)NCc1ccc(F)cc1F)[C@@H](CC1CC1)C(=O)N1C[C@]2(C[C@H]1C#N)C(=O)Nc1ccccc12` [Example 190], for which, on SARS-CoV-2 3CL-protease, the pIC50 was over 7.00. In addition, the pEC50 in assay [1] is over 7.00.

For the compound `CC(C)C[C@H]1C(=O)N2C[C@]3(C[C@H]2C#N)C(=O)Nc2ccc(cc23)CCCCNC(=O)C(=O)N1C` [Example 211], the negative-log IC50 (pIC50) at SARS-CoV-2 3CL-protease was 6.00 to 7.00. The same compound gave a pEC50 in assay [1] of 6.00 to 7.00.

Turning to `CC(C)(C)C[C@H](NC(=O)C(=O)Nc1ccc2cc(F)ccc2c1)C(=O)N1C[C@]2(C[C@H]1C#N)C(=O)Nc1ccccc12` [Example 85], the pIC50 at SARS-CoV-2 3CL-protease was over 7.00. This compound also showed a pEC50 in assay [1] of over 7.00.

In the case of `CC(C)(C)C[C@H](NC(=O)C(=O)c1c[nH]c2ccccc12)C(=O)N1C[C@]2(C[C@H]1C#N)C(=O)Nc1ccccc12` [Example 181], at SARS-CoV-2 3CL-protease, the negative-log IC50 (pIC50) was 6.00 to 7.00. In assay [1], the pEC50 was 6.00 to 7.00.

Turning to `CC(C)C[C@H]1C(=O)N2C[C@]3(C[C@H]2C#N)C(=O)Nc2ccc(cc23)CCCCN(Cc2ccccc2)C(=O)C(=O)N1C` [Example 212], the pIC50 at SARS-CoV-2 3CL-protease is 6.00 to 7.00. For the same compound, the pEC50 in assay [1] is 6.00 to 7.00.

For the compound `C[C@@H](NC(=O)C(=O)N[C@@H](CC(C)(C)C)C(=O)N1C[C@]2(C[C@H]1C#N)C(=O)Nc1ccccc12)c1ccccc1` [Example 160], the pIC50 at SARS-CoV-2 3CL-protease was over 7.00. Besides, the pEC50 in assay [1] was over 7.00.

For `CC(C)(C)C[C@H](NC(=O)C(=O)Nc1ccccc1F)C(=O)N1C[C@]2(C[C@H]1C#N)C(=O)Nc1ccccc12` [Example 90], the pIC50 on SARS-CoV-2 3CL-protease is over 7.00. Further, in assay [1], the pEC50 is over 7.00.

As for `CC(C)(C)C[C@H](NC(=O)C(=O)Nc1ccc(F)cc1)C(=O)N1C[C@]2(C[C@H]1C#N)C(=O)Nc1ccccc12` [Example 93], the pIC50 on SARS-CoV-2 3CL-protease is over 7.00. The compound also had a pEC50 in assay [1] of over 7.00.
